Reference: patent publication US11174223B2, “Compositions, methods, and systems for the synthesis and use of imaging agents” (Lantheus Medical Imaging, Inc., priority 2010, dated 2021)

Experiments:
[1] = Whole organ bio-distribution and dosimetry from PET in healthy subjects; format: in vivo, human
Experimental: Whole organ bio-distribution and dosimetry for ^18F-labeled imaging agent-1 were determined based on PET image data from twelve healthy subjects. Image quantification, kinetic modeling to determine residence times, and dosimetry analysis were performed.
Head to mid-thigh PET image data for twelve healthy subjects were obtained using ^18F labeled imaging agent-1 at approximately 17, 31, 45, 117, 190, and 225 minutes post injection. Additionally, leg images were also obtained at approximately 66 and 274 minutes post injection. Image data were attenuation corrected at the imaging site, and were quantified based on the Medical Internal Radiation Dosimetry (MIRD) 16 methodology to determine kinetic data in all organs showing significant uptake of activity. Dosimetry estimates were created via kinetic modeling of the quantified image data to determine residence times, and the standard MIRD methodology using a method similar. Kinetic data, residence times, and the dosimetry estimates were reported for each subject and as summary statistics.

NET = NET (Homo sapiens, UniProt P23975); assay: Competition binding assay in cell membranes over-expressing human NET; set-up: expressed in transfected cells
Sequence of NET (P23975 whole entry): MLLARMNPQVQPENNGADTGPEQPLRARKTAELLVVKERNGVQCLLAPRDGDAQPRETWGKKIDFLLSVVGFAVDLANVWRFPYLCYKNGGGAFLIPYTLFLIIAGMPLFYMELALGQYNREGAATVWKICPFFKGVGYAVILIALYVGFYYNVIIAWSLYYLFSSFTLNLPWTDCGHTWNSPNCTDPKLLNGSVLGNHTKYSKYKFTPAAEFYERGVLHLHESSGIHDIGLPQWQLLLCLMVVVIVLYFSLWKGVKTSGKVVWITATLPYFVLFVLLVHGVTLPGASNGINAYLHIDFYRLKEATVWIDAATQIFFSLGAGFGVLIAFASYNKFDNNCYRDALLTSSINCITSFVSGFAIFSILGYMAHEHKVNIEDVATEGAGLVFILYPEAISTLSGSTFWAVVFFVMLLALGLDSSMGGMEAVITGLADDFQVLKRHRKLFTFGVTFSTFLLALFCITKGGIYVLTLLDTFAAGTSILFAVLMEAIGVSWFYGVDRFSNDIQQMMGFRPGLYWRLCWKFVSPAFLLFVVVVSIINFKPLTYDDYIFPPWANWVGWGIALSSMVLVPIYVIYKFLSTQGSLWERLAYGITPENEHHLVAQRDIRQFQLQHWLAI
Experimental: Imaging agent-1 was designed as a substrate for the norepinephrine transporter (NET) to image the cardiac sympathetic nervous system. […] In animals, tissue biodistribution of imaging agent-1 was assessed by tissue sampling at 15- and 60-minute following administration.
The affinity (Ki) was determined in a competition binding assay by incubating ^19F-imaging agent-1, a cold analog of imaging agent-1, or NE with ^3H-desmethylimipramine in cell membrane overexpressing human NET. […] In SK—NSH cells, the uptake kinetics (Km and Vmax) were evaluated by measuring NET mediated uptake of imaging agent-1 or NE at various concentrations. Imaging agent-1 cardiac image quality was evaluated by PET imaging (˜1.5 mCi, i.v.) in rabbits in the presence and absence of desipramine (1 mg/kg).

[2] = Cardiac PET imaging in rabbit models of regional and systemic cardiac sympathetic denervation (CSD); format: in vivo, rabbits
Experimental: Rabbit models of regional and systemic CSD were used. To develop regional CSD, a median sternotomy was performed and phenol (89% in liquid) was pained on the anterior and posterior walls of the left ventricle. To develop systemic denervation the neurotoxin, 6-hydroxydopamine (25 mg/kg on day 1, 2, 7 and 8), was administered intravenously. Two weeks following these procedures, rabbits were imaged with imaging agent-1 (˜1.5 mCi, i.v.) using a microPET camera for 30 minutes.

[3] = Tissue biodistribution by tissue sampling in rats; format: in vivo
Experimental: Imaging agent-1 was designed as a substrate for the norepinephrine transporter (NET) to image the cardiac sympathetic nervous system. […] These values were similar to that of MIBG (2.12±0.26 μM and 4.76±0.78 pmol/min/million cells). In animals, tissue biodistribution of imaging agent-1 was assessed by tissue sampling at 15- and 60-minute following administration. Heart uptake was 2.36±0.16 and 2.17±0.12% injected dose per g tissue (% ID/g) in rats and 0.25±0.03 and 0.28±0.03% ID/g in rabbits. In rabbits, desipramine (1 mg/kg) inhibited heart uptake of imaging agent-1 by 68% and ^123I-MIBG uptake by 55% at 1 hour post dose.

[4] = Dosimetry in non-human primates to estimate human radiation dosimetry; format: in vivo, cynomolgus monkeys
Experimental: Dosimetry in non-human primates of imaging agent-1 was examined. Imaging agent-1, which is labeled with ^18F, is a novel norepinephrine transporter (NET) ligand and was a useful radiotracer for mapping the cardiac nerve terminal in vivo using positron emission tomography. A study was performed in four non-human primates to estimate human radiation dosimetry.
In this study two male and two female cynomolgus monkeys were imaged using a Concord Focus 220 MicroPET scanner for whole body ^18F distribution following 4 to 5 mCi (0.65 to 1.6 μg) single intravenous injection of imaging agent-1. Under isoflurane anesthesia, images of the animals from head to lower abdomen were acquired in 5 segments over four and half hours following injection. Radioactivity in identifiable organs and the remainder of the body was determined as a function of time using region-of-interest analysis. The total number of disintegrations per unit injected dose was determined by normalizing by the injected radioactivity and integrating over time the data for radioactivity versus time. Using the OLINDA/EXM software (Organ Level Internal Dose Assessment/EXponential Modeling Software, published by Vanderbilt University), the normalized number of ^18F disintegrations for each organ was combined with the energy released by each disintegration, and using the MIRD schema, estimates were made of the fraction of the total released energy that was retained in each source organ and the contribution from each source organ to the energy deposited in surrounding target organs for an adult human. Dividing the total fractional energy deposited in each organ by the corresponding organ mass yielded the radiation dose for that organ per unit (mCi or MBq) injected dose.

[5] = estimated from cynomolgus monkey PET

N=C(N)NCc1ccc(OCCC[18F])c(Br)c1 [imaging agent-1, 1-{3-Bromo-4-[3-[^18F]fluoropropoxy]benzyl}guanidine]
Ratio of myocardial to liver radioactivity ([1]; at 4 hours): more than two
Peak uptake, liver ([1]; average): approximately 15.5 % of the injected activity
Peak uptake, urinary bladder ([1]; average): approximately 18.3 % of the injected activity
Injected dose remaining in the myocardium ([1]; decay-corrected, through 4 hours after injection): above 1.5 % of ID
Blood radioactivity clearance ([1]; human, in vivo): cleared quickly
Lung activity ([1]; human, in vivo): low throughout the study
Tolerability ([1]; human, in vivo): well tolerated
Injected dose seen in the myocardium initially ([1]; initially): Approximately 1.6 % of the injected dose (ID)
Ratio of myocardial to liver radioactivity ([1]; initially): approximately one
Adverse events ([1]; twelve healthy subjects): No adverse events
Ki (NET; Example 25, cell membranes over-expressing the human NET): 5.16 ± 0.93 µM
Ki (NET; Example 27, ^19F cold analog or NE vs ^3H-desmethylimipramine, membrane overexpressing human NET): 5.2 ± 1.1 µM
Global reduction in heart uptake compared to control animals (image based quantification) ([2]; rabbits with systemic denervation (6-hydroxydopamine)): ~80%
Uptake in the treated regions after regional denervation ([2]; rabbits, phenol regional denervation): marked reduction
Heart uptake ([3]; 15-minute following administration): 2.36±0.16 % ID/g
Heart uptake ([3]; 60-minute following administration): 2.17±0.12 % ID/g
Maximum administered dose that does not exceed 10 mSv effective dose ([4]; based on average values): 14 mCi
Maximum dose that may be administered to a human without exceeding 50 mSv (5 rem) to the urinary bladder ([4]; based on average values): 12 mCi
Mean effective dose as defined in ICRP 60 [4, 5]: 0.070±0.0059 rem/mCi
Mean whole body dose estimate [4, 5]: 0.044±0.00031 rem/mCi
Predicted human radiation dose estimate, adrenals [4, 5]: 0.14±0.027 rem/mCi
Predicted human radiation dose estimate, heart wall [4, 5]: 0.085±0.014 rem/mCi
Predicted human radiation dose estimate, kidneys [4, 5]: 0.15±0.088 rem/mCi
Predicted human radiation dose estimate, osteogenic cells [4, 5]: 0.084±0.0048 rem/mCi
Predicted human radiation dose estimate, red bone marrow [4, 5]: 0.083±0.0099 rem/mCi
Predicted human radiation dose estimate, urinary bladder wall ([4]; estimated from cynomolgus monkey PET, OLINDA/EXM): 0.41±0.089 rem/mCi
